{"source": "patent US7449546B2", "about": "“Method for extending storage of glutathione solutions and methods for treating Parkinson's disease with said stored glutathione solutions” (Kromar Medical Corporation, priority 2001, dated 2008)", "key": {"[1]": {"conditions": "for [G-SH]/[G-SH]0: storage at 25° C.", "protocol": "This solution was stored at room temperature (25° C.) for 74 days."}, "[2]": {"conditions": "for [G-SH]/[G-SH]0: storage at 5° C."}, "[3]": {"tested_on": "liver cancer", "conditions": "oral, daily amount of 5,000 mg, eight patients; cited from earlier work"}, "[4]": {"conditions": "solution temperature lowered by 20° C. from room temperature"}}, "note": "Read-outs that look alike come from different tables or passages of the source.", "data": [{"smiles": "N[C@@H](CCC(=O)N[C@@H](CS)C(=O)NCC(=O)O)C(=O)O", "note": "[reduced glutathione]", "values": [{"measurement": "concentration of reduced glutathione relative to its initial value", "setting": "[1]; room temperature (25° C.), within three weeks, 180 mg/ml, pH 6.4", "result": 90, "unit": "%"}, {"measurement": "safe storage time in aqueous solution", "setting": "[1]; room temperature, absence of oxidation catalysts, criterion at least 90% of initial concentration", "result": "cannot be safely stored in aqueous solution at room temperature for longer than three weeks"}, {"measurement": "[G-SH]/[G-SH]0", "setting": "[1]; 1 day, 180 mg/ml, pH 6.4", "result": 0.94}, {"measurement": "[G-SH]/[G-SH]0", "setting": "[1]; 2 days, 180 mg/ml, pH 6.4", "result": 0.99}, {"measurement": "[G-SH]/[G-SH]0", "setting": "[1]; 3 days, 180 mg/ml, pH 6.4", "result": 0.99}, {"measurement": "[G-SH]/[G-SH]0", "setting": "[1]; 7 days, 180 mg/ml, pH 6.4", "result": 0.98}, {"measurement": "[G-SH]/[G-SH]0", "setting": "[1]; 14 days, 180 mg/ml, pH 6.4", "result": 0.95}, {"measurement": "[G-SH]/[G-SH]0", "setting": "[1]; 21 days, 180 mg/ml, pH 6.4", "result": 0.90}, {"measurement": "[G-SH]/[G-SH]0", "setting": "[1]; 28 days, 180 mg/ml, pH 6.4", "result": 0.89}, {"measurement": "[G-SH]/[G-SH]0", "setting": "[1]; 56 days, 180 mg/ml, pH 6.4", "result": 0.78}, {"measurement": "[G-SH]/[G-SH]0", "setting": "[1]; 74 days, 180 mg/ml, pH 6.4", "result": 0.68}, {"measurement": "dimerization of glutathione", "setting": "[2]; [4]", "result": "essentially stopped"}, {"measurement": "storage period of the reduced glutathione solution", "setting": "[2]; [4]", "result": "significantly greater than four months"}, {"measurement": "[G-SH]/[G-SH]0", "setting": "[2]; 1 day, 189 mg/ml, pH 6.4", "result": 1.02}, {"measurement": "[G-SH]/[G-SH]0", "setting": "[2]; 2 days, 189 mg/ml, pH 6.4", "result": 1.01}, {"measurement": "[G-SH]/[G-SH]0", "setting": "[2]; 3 days, 189 mg/ml, pH 6.4", "result": 1.01}, {"measurement": "[G-SH]/[G-SH]0", "setting": "[2]; 7 days, 189 mg/ml, pH 6.4", "result": 1.02}, {"measurement": "[G-SH]/[G-SH]0", "setting": "[2]; 14 days, 189 mg/ml, pH 6.4", "result": 1.00}, {"measurement": "[G-SH]/[G-SH]0", "setting": "[2]; 21 days, 189 mg/ml, pH 6.4", "result": 0.99}, {"measurement": "[G-SH]/[G-SH]0", "setting": "[2]; 28 days, 189 mg/ml, pH 6.4", "result": 1.02}, {"measurement": "[G-SH]/[G-SH]0", "setting": "[2]; 56 days, 189 mg/ml, pH 6.4", "result": 1.00}, {"measurement": "[G-SH]/[G-SH]0", "setting": "[2]; 84 days, 189 mg/ml, pH 6.4", "result": 1.00}, {"measurement": "[G-SH]/[G-SH]0", "setting": "[2]; 112 days, 189 mg/ml, pH 6.4", "result": 0.98}, {"measurement": "decrease of reduced glutathione concentration over time", "setting": "[2]; stored at 5° C., monitored for four months, 189 mg/ml, 0.005M octylammonium orthophosphate, pH 6.4", "result": "no decrease over time"}, {"measurement": "effects in patients with liver cancer", "setting": "[3]", "result": "modest effects in women but not in men"}]}]}
